The values that follow come from patent US12202835B2, “Substituted aromatic ring-linked dioxinoquinazolines and dioxinoquinolines as kinase inhibitors” (BEIJING SCITECH-MQ PHARMACEUTICALS LIMITED, priority 2018, dated 2025).

Read-outs that look alike come from different tables or passages of the source. Some results are limits rather than exact numbers.

For one test, the system named is Ba/F3 LMNA-NTRK1 cells. Description: Assay for inhibiting the proliferation of Ba/F3 LMNA-NTRK1 cells (CCK-8). The format is cell-based. A digest of the protocol: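 Cells were seeded and cultured overnight, then treated with graded compound concentrations (final DMSO 0.25%) for 72 h. CCK-8 was added for 1–2 h at 37 °C and OD450 read. Survival was normalised to untreated and cell-free blank wells, and IC50 was fitted.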

The target in the next test is TRKA kinase (Homo sapiens (Human), UniProt P04629). Description: Assay of small molecular compounds for inhibiting the activity of TRKA kinase (LANCE TR-FRET). It counts as biochemical. In a few lines: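 LANCE TR-FRET with ULight-TK peptide; compounds pre-incubated 5 min with TRKA (2× solution 2 nM), then substrate/ATP added (4× mix: 400 nM peptide, 40 μM ATP). Reaction 60 min at room temperature in dark, 1% DMSO final; stopped, detection developed 60 min, signal read.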

Another test concerns Ba/F3-AXL cells. Description: Assay for inhibiting the proliferation of Ba/F3-AXL cells (CCK-8). The format is cell-based. To be noted: 72 hours of incubation, medium with 100 ng/mL hGas6, CCK-8. The procedure: The values were then imported into Graphpad Prism 5 software for curve fitting, and IC50 was calculated.
The target of a further test is MER kinase (Homo sapiens (Human), UniProt Q12866). The experiment in a line: Assay of small molecular compounds for inhibiting the activity of MER kinase (LANCE TR-FRET). The format is biochemical. In a few lines: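 MER kinase preincubated 5 min at RT with compound (11 points, 0.042-2500 nM final), then ULight-poly GT and ATP added (4× stocks 200 nM and 20 μM) for 60 min at RT, 1% DMSO. Phosphorylation detected by LANCE TR-FRET; IC50 from % inhibition versus controls.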
On the technique in general: Time-resolved FRET reads energy transfer from a long-lived donor to a nearby acceptor.

Sequence of TRKA kinase (P04629 33-796): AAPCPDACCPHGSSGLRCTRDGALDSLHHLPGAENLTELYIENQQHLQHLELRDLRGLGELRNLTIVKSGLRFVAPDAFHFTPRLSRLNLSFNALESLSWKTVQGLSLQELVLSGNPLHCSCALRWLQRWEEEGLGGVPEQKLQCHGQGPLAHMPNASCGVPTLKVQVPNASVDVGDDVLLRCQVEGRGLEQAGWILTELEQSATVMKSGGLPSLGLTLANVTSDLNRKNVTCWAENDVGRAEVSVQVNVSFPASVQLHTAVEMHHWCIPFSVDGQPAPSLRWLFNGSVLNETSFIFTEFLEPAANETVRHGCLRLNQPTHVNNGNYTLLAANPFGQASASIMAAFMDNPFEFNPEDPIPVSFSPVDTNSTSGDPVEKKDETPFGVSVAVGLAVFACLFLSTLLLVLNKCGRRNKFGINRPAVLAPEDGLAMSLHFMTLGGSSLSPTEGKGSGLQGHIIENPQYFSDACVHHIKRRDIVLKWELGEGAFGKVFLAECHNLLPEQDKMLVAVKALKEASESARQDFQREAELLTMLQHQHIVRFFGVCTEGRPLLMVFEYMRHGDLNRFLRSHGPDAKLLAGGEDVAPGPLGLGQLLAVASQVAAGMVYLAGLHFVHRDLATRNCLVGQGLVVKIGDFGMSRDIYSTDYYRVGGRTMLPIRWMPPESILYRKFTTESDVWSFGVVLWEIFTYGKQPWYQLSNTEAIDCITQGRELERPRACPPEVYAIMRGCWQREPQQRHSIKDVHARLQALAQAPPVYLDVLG
Sequence of MER kinase (Q12866 21-999): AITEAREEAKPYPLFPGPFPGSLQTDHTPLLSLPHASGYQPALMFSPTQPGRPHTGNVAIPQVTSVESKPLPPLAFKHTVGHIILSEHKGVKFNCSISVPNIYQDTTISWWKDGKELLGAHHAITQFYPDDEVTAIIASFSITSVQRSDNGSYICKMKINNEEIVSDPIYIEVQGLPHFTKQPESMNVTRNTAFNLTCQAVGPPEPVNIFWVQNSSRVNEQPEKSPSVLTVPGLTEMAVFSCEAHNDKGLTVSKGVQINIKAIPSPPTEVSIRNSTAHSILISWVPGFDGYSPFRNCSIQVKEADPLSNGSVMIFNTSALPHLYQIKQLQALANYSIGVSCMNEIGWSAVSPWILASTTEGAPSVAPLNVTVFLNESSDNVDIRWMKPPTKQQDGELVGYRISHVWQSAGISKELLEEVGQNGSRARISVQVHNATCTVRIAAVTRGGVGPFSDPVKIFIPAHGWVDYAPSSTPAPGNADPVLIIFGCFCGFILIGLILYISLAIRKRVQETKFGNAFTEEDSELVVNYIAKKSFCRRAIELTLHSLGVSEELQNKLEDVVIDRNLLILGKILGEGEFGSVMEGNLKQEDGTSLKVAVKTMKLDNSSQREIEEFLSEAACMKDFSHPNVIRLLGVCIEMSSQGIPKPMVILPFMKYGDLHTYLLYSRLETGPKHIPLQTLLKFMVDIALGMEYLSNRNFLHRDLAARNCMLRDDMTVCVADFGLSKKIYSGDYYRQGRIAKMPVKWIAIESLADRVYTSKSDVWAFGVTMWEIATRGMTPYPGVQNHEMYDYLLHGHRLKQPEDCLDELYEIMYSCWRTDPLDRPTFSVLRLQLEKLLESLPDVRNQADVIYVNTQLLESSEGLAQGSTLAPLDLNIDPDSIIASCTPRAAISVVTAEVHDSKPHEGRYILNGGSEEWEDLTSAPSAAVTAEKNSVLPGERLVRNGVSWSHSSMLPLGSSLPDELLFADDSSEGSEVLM

Turning to `CCOc1ccn(-c2ccc(F)cc2)c(=O)c1C(=O)Nc1ccc(Oc2ccnc3cc(OCCCN4CCOCC4)c4c(c23)OCCO4)c(F)c1` [Example 22, N-(3-fluoro-4-((5-(3-morpholinopropoxy)-2,3-dihydro-[1,4]dioxino[2,3-f]quinolin-10-yl)oxy)phenyl)-1-(4-fluorophenyl)-4-ethoxy-2-oxo-1,2-dihydropyridine-3-carboxamide], the half-inhibitory concentration (IC50) (in general, the midpoint of a concentration-inhibition curve) is less than 50 nM with Ba/F3 LMNA-NTRK1 cells (Mus musculus, BaF3); less than 50 nM on TRKA kinase; less than 50 nM in the test on Ba/F3-AXL cells; no more than 50 nM at MER kinase.

For `CCOc1ccn(-c2ccc(F)cc2)c(=O)c1C(=O)Nc1ccc(Oc2ccnc3cc(OCC(C)(C)O)c4c(c23)OCCO4)c(F)c1` [Example 120, N-(3-fluoro-4-((5-(2-hydroxy-2-methylpropoxy)-2,3-dihydro-[1,4]dioxino[2,3-f]quinolin-10-yl)oxy)phenyl)-4-ethoxy-1-(4-fluorophenyl)-2-oxo-1,2-dihydropyridine-3-carboxamide], the IC50 was less than 50 nM in the test with Ba/F3 LMNA-NTRK1 cells (Mus musculus, BaF3); less than 50 nM against TRKA kinase; less than 50 nM in the test on Ba/F3-AXL cells; no more than 50 nM against MER kinase.

In the case of `COc1ccn(-c2ccc(F)cc2)c(=O)c1C(=O)Nc1ccc(Oc2ccnc3cc(OCCCN4CCOCC4)c4c(c23)OCCO4)c(F)c1` [Example 21, N-(3-fluoro-4-((5-(3-morpholinopropoxy)-2,3-dihydro-[1,4]dioxino[2,3-f]quinolin-10-yl)oxy)phenyl)-1-(4-fluorophenyl)-4-methoxy-2-oxo-1,2-dihydropyridine-3-carboxamide], the IC50 is less than 50 nM in the test on Ba/F3 LMNA-NTRK1 cells (Mus musculus, BaF3); less than 50 nM against TRKA kinase; less than 50 nM with Ba/F3-AXL cells; no more than 50 nM against MER kinase.

`O=C(Nc1ccc(Oc2ccnc3cc(OCCCN4CCCCC4)c4c(c23)OCCO4)c(F)c1)c1cccn(-c2ccc(F)cc2)c1=O` [Example 31, N-(3-fluoro-4-((5-(3-(piperidin-1-yl)propoxy)-2,3-dihydro-[1,4]dioxino[2,3-f]quinolin-10-yl)oxy)phenyl)-1-(4-fluorophenyl)-2-oxo-1,2-dihydropyridine-3-carboxamide]: the IC50 was less than 50 nM in the test with Ba/F3 LMNA-NTRK1 cells, less than 50 nM at TRKA kinase, less than 50 nM in the test on Ba/F3-AXL cells and no more than 50 nM on MER kinase.

Take `CCOc1ccn(-c2ccc(F)cc2)c(=O)c1C(=O)Nc1ccc(Oc2ccnc3cc(OCC(C)(C)O)c4c(c23)OCCO4)cc1Cl` [Example 142, N-(2-chloro-4-((5-(2-hydroxy-2-methylpropoxy)-2,3-dihydro-[1,4]dioxino[2,3-f]quinolin-10-yl)oxy)phenyl)-1-(4-fluorophenyl)-4-ethoxy-2-oxo-1,2-dihydropyridine-3-carboxamide]: the IC50 was less than 50 nM in the test on Ba/F3 LMNA-NTRK1 cells (Mus musculus, BaF3); less than 50 nM on TRKA kinase; less than 50 nM with Ba/F3-AXL cells; no more than 50 nM against MER kinase.

Regarding `Cn1cc(C(=O)Nc2ccc(Oc3ccnc4cc(OCC(C)(C)O)c5c(c34)OCCO5)cc2Cl)c(=O)n(-c2ccc(F)cc2)c1=O` [Example 141, N-(2-chloro-4-((5-(2-hydroxy-2-methylpropoxy)-2,3-dihydro-[1,4]dioxino[2,3-f]quinolin-10-yl)oxy)phenyl)-3-(4-fluorophenyl)-1-methyl-2,4-dioxo-1,2,3,4-tetrahydropyrimidine-5-carboxamide], the IC50 in the test on Ba/F3 LMNA-NTRK1 cells (Mus musculus, BaF3) is less than 50 nM; against TRKA kinase, less than 50 nM; in the test with Ba/F3-AXL cells it was less than 50 nM; at MER kinase, 50 to 500 nM.

On to `CCOc1ccn(-c2ccc(F)cc2)c(=O)c1C(=O)Nc1cc(F)c(Oc2ccnc3cc(OC)c4c(c23)OCCO4)cc1Cl` [Example 115, N-(2-chloro-5-fluoro-4-((5-methoxy-2,3-dihydro-[1,4]dioxino[2,3-f]quinolin-10-yl)oxy)phenyl)-4-ethoxy-2-oxo-1-(4-fluorophenyl)-1,2-dihydropyridin-3-carboxamide], for which the IC50 with Ba/F3 LMNA-NTRK1 cells (Mus musculus, BaF3) was less than 50 nM; against TRKA kinase, less than 50 nM; with Ba/F3-AXL cells, less than 50 nM; against MER kinase, no more than 50 nM.

For `COc1cn(-c2ccc(F)cc2C)nc1C(=O)Nc1ccc(Oc2ccnc3cc(OCCCN4CCOCC4)c4c(c23)OCCO4)c(F)c1` [Example 27, 1-(4-fluoro-2-methylphenyl)-N-(3-fluoro-4-((5-(3-morpholinopropoxy)-2,3-dihydro-[1,4]dioxino[2,3-f]quinolin-10-yl)oxy)phenyl)-4-methoxy-1H-pyrazole-3-carboxamide], the IC50 with Ba/F3 LMNA-NTRK1 cells (Mus musculus, BaF3) was less than 50 nM; against TRKA kinase, less than 50 nM; in the test on Ba/F3-AXL cells, less than 50 nM; on MER kinase, no more than 50 nM.

In the case of `CCOc1ccn(-c2ccc(Cl)cc2)c(=O)c1C(=O)Nc1ccc(Oc2ccnc3cc(OC)c4c(c23)OCCO4)c(F)c1` [Example 113, N-(3-fluoro-4-((5-methoxy-2,3-dihydro-[1,4]dioxino[2,3-f]quinolin-10-yl)oxy)phenyl)-2-oxo-4-ethoxy-1-(4-chlorophenyl)-1,2-dihydropyridin-3-carboxamide], the concentration for half-maximal inhibition (IC50) in the test with Ba/F3 LMNA-NTRK1 cells (Mus musculus, BaF3) was less than 50 nM; at TRKA kinase, less than 50 nM; with Ba/F3-AXL cells, less than 50 nM; on MER kinase, no more than 50 nM.

With `CCn1cc(C(=O)Nc2ccc(Oc3ccnc4cc(OCCCN5CCCCC5)c5c(c34)OCCO5)c(F)c2)c(=O)n(-c2ccc(F)cc2)c1=O` [Example 41, N-(3-fluoro-4-((5-(3-(piperidin-1-yl)propoxy)-2,3-dihydro-[1,4]dioxino[2,3-f]quinolin-10-yl)oxy)phenyl)-3-(4-fluorophenyl)-1-ethyl-2,4-dioxo-1,2,3,4-tetrahydropyrimidine-5-carboxamide], the IC50 in the test with Ba/F3 LMNA-NTRK1 cells (Mus musculus, BaF3) was less than 50 nM; at TRKA kinase, less than 50 nM; in the test on Ba/F3-AXL cells, less than 50 nM; against MER kinase it was no more than 50 nM.

As to `COc1cc2nccc(Oc3ccc(NC(=O)c4cn(C)c(=O)n(-c5ccc(F)cc5)c4=O)cc3F)c2c2c1OCCO2` [Example 13, N-(3-fluoro-4-((5-methoxy-2,3-dihydro-[1,4]dioxino[2,3-f]quinolin-10-yl)oxy)phenyl)-3-(4-fluorophenyl)-1-methyl-2,4-dioxo-1,2,3,4-tetrahydropyrimidine-5-carboxamide], the IC50 in the test on Ba/F3 LMNA-NTRK1 cells (Mus musculus, BaF3) was less than 50 nM; on TRKA kinase, less than 50 nM; with Ba/F3-AXL cells, less than 50 nM; against MER kinase, no more than 50 nM.

`COc1ccn(-c2ccc(F)cc2)c(=O)c1C(=O)Nc1ccc(Oc2ncnc3cc(OCCCN4CCOCC4)c4c(c23)OCCO4)c(F)c1` [Example 5, N-(3-fluoro-4-((5-(3-morpholinopropoxy)-2,3-dihydro-[1,4]dioxino[2,3-f]quinazolin-10-yl)oxy)phenyl)-1-(4-fluorophenyl)-4-methoxy-2-oxo-1,2-dihydropyridine-3-carboxamide]: the results for the IC50 at TRKA kinase, with Ba/F3-AXL cells and against MER kinase were less than 50 nM, less than 50 nM and no more than 50 nM, respectively.

Turning to `COc1cc2nccc(Oc3ccc(NC(=O)c4cn(CCCO)c(=O)n(-c5ccc(F)cc5)c4=O)cc3F)c2c2c1OCCO2` [Example 99, N-(3-fluoro-4-((5-methoxy-2,3-dihydro-[1,4]dioxino[2,3-f]quinolin-10-yl)oxy)phenyl)-3-(4-fluorophenyl)-1-(3-hydroxypropyl)-2,4-dioxo-1,2,3,4-tetrahydropyrimidine-5-carboxamide], the IC50 on TRKA kinase is 50 to 500 nM; in the test on Ba/F3-AXL cells, less than 50 nM; against MER kinase, no more than 50 nM.

On to `O=C(Nc1ccc(Oc2ncnc3cc(OCCCN4CCOCC4)c4c(c23)OCCO4)c(F)c1)c1cccn(-c2ccc(F)cc2)c1=O` [Example 4, N-(3-fluoro-4-((5-(3-morpholinopropoxy)-2,3-dihydro-[1,4]dioxino[2,3-f]quinazolin-10-yl)oxy)phenyl)-1-(4-fluorophenyl)-2-oxo-1,2-dihydropyridine-3-carboxamide], for which the results for the IC50 on TRKA kinase, in the test on Ba/F3-AXL cells and at MER kinase were less than 50 nM, less than 50 nM and no more than 50 nM, respectively.

For `Cn1cc(C(=O)Nc2ccc(Oc3ccnc4cc(OCC(C)(C)O)c5c(c34)OCCO5)c(F)c2)c(=O)n(-c2ccc(F)cc2)c1=O` [Example 121, N-(3-fluoro-4-((5-(2-hydroxy-2-methylpropoxy)-2,3-dihydro-[1,4]dioxino[2,3-f]quinolin-10-yl)oxy)phenyl)-3-(4-fluorophenyl)-1-methyl-2,4-dioxo-1,2,3,4-tetrahydropyrimidine-5-carboxamide], the IC50 against TRKA kinase was 50 to 500 nM; in the test on Ba/F3-AXL cells it was less than 50 nM; at MER kinase it was no more than 50 nM.

For the compound `CC(C)n1cc(C(=O)Nc2ccc(Oc3ccnc4cc(OCC5(N)CC5)c5c(c34)OCCO5)c(F)c2)c(=O)n(-c2ccc(F)cc2)c1=O` [Example 106, N-(3-fluoro-4-((5-((1-aminocyclopropyl)methoxy)-2,3-dihydro-[1,4]dioxino[2,3-f]quinolin-1 0-yl)oxy)phenyl)-3-(4-fluorophenyl)-1-isopropyl-2,4-dioxo-1,2,3,4-tetrahydropyrimidine-5-carboxamide], the IC50 against TRKA kinase was 50 to 500 nM; in the test with Ba/F3-AXL cells it was less than 50 nM; against MER kinase it was no more than 50 nM.

Turning to `CCOc1ccn(-c2cccc(F)c2)c(=O)c1C(=O)Nc1ccc(Oc2ccnc3cc(OC)c4c(c23)OCCO4)c(F)c1` [Example 114, N-(3-fluoro-4-((5-methoxy-2,3-dihydro-[1,4]dioxino[2,3-f]quinolin-10-yl)oxy)phenyl)-2-oxo-4-ethoxy-1-(3-fluorophenyl)-1,2-dihydropyridin-3-carboxamide], the IC50 against TRKA kinase was 50 to 500 nM; in the test on Ba/F3-AXL cells, less than 50 nM; against MER kinase, no more than 50 nM.
